Laboratory results from patent publication US4472382A, “Treatment method” (Roussel Uclaf, priority 1979, dated 1984).
“Also recorded” adds a separate entry of the source.

How the values were obtained:
[1] = system: testicular steroidogensis; test: Inhibitory activity against testicular steroidogenesis in men in good health, single intranasal administration; assay type: in vivo
Description: The said product was administered intranasally at a dose of 500 μg in a few drops of distilled water at 8 A.M. on the third day of the test. For 2 days prior to the treatment and for 6 days after the treatment, samples of blood were taken daily at 8 A.M., 3 P.M. and 10 P.M. On the day of administration of the LH--RH agonist, blood samples were taken at 11 A.M. and 6 P.M.
The seric concentrations of LH and FSH were measured by radioimmuno-logic dosages with double antibodies and the antibodies for measuring LH and FSH were furnished by the National Pituitary Agency of N.I.H. in Bethesda, Md. The seric concentrations of steroids was measured by radioimmuno-logic dosages in which one ml of serum was extracted with ether and the steroids were separated on a LH-20 column before measuring with radioimmuno-logic dosages. The radioimmuno-logic dosage results were determined by a program derived from model II of Rodbard et al [Second Karolinska Symposium on Research Methods in Reproductive Endrocrinology, Diczfalusky Editor, Copenhague (1970), p. 79-103]. The statistical significance was determined by the "multiple level test" of Duncan-Kramer [Kramer, Biometrics, Vol. 12 (1956), p. 307]. The results are shown in the graphs on sheet 1 of the Figures filed herewith.

[2] = system: testicular steriodogenosis; test: Inhibitory activity on testicular steroidogenesis in a patient with prostate cancer; assay type: in vivo, human; conditions: intranasal 500 μg twice a day
Excerpt: The inhibitory activity of [D Ser (Tbu)^6, des Gly NH2^10 ] […] The results are reported in the graphs of sheet 2 of the Figures.

ovarian steroidogenosis = test: Inhibitory activity on ovarian steroidogenesis in women; assay type: in vivo
Description: The inhibitory activity of [D Ser (Tbu)^6, des Gly NH2^10 ] LH--RH ethylamide on ovarian steroidogenosis in women was determined on 6 women aged 26 to 35 years with normal and regular menstrual cycles and without prior endocrinal or gynecological problems. The study was conducted for 6 consecutive cycles consisting of 2 pretreatment cycles, 2 treatment cycles and 2 post-treatment cycles. Two drops of a solution containing 500 μg of [D Ser (Tbu)^6, des Gly NH2^10 ] LH--RH ethylamide were deposited on each nostril at 8 A.M. and 5 P.M. of a day between the 4th and 9th day after the peak of LH-day 0. Daily blood samples were taken between 4 and 6 P.M. to measure seric levels of LH, FSH, progesterone and estradiol which were determined by radioimmuno-logictests with double antibodies. The antibodies to measure LH and FSH were furnished by the National Pituitory Agency of N.I.H. of Bethesda, Md.
Estradiol and progesterone were measured with highly specific antibodies developed against 7-(O-carboxymethyl)-oxime of estradiol and 12-(O-carboxymethyl)-oxime of progesterone, respectively [3H] 17β-estradiol and ^125 I-progesterone-12-[O-carboxymethyl)-oxime]used as tracers. The serum was extracted with benzene and the steroids were separated with a LH-20 column before the determination. The radioimmunological results were exploited by the program derived from model II of Rodbard and Lewald as in Example 1 and the statistical significance was measured by the multiple level test of Ducan-Kramer of Example 1. The results are shown in the graphs of sheets 3 to 5 of the Figures.

[3] = men, intranasal 500 μg, 3rd day following administration
[4] = intranasal 500 μg at 8 A.M. and 5 P.M. of one day in the luteal phase, typical subject of sheet 3

CCNC(=O)[C@@H]1CCCN1C(=O)[C@H](CCCNC(=N)N)NC(=O)[C@H](CC(C)C)NC(=O)[C@@H](COC(C)(C)C)NC(=O)[C@H](Cc1ccc(O)cc1)NC(=O)[C@H](CO)NC(=O)[C@H](Cc1c[nH]c2ccccc12)NC(=O)[C@H](Cc1c[nH]cn1)NC(=O)[C@@H]1CCC(=O)N1 [[D Ser (Tbu)^6, des Gly NH2^10] LH--RH ethylamide]
duration of the drop of seric levels of the steroids (testosterone and its precursors) ([1]; human, single intranasal dose of 500 μg): 3 days
diminution of the level of testosterone ([1]; human, single intranasal dose of 500 μg, 3rd day following administration): 50%
level of testosterone / steroids on the fourth day after administration ([1]; human, single intranasal dose of 500 μg, fourth day (until the 6th day)): returned to normal; also recorded: return to normal levels
concentration of 17-OH-progesterone relative to the initial control values [1, 3]: 40%
concentration of testosterone relative to the initial control values [1, 3]: 50%
LH and FSH plasmatic levels ([1]; men, intranasal 500 μg, after administration): increase
seric concentration of pregnenolone, 17-OH-pregnenolone, progesterone, 17-OH-progesterone, Δ5-androstene-3β,17β-diol and testosterone ([1]; men, intranasal 500 μg, on the day of treatment): increased
level of androgenic steroids [2]: diminution
level of testosterone ([2]; two weeks of treatment): stabilized at a very low level
progesterone level, cycles of post-treatment, % of the control values (pretreatment cycles = 100%) (ovarian steroidogenosis; 12 cycles of post-treatment): 99%
progesterone level, cycles of treatment, % of the control values (pretreatment cycles = 100%) (ovarian steroidogenosis; 12 cycles of treatment): 46%
level of progesterone reduced as compared to the controls (ovarian steroidogenosis; 12 cycles, sheet 5, scale 13 to 127%): 46%
reduction of seric levels of progesterone as compared to the controls, first cycle of treatment (ovarian steroidogenosis; [4]): 13%
reduction of seric levels of progesterone as compared to the controls, second cycle of treatment (ovarian steroidogenosis; [4]): 34%
level of seric progesterone in the 2 cycles of post-treatment (ovarian steroidogenosis; post-treatment cycles): return to normal
